The record followed here is patent US10646494B2, “Heterocycle-substituted tetracyclic compounds and methods of use thereof for the treatment of viral diseases” (Merck Sharp & Dohme Corp., priority 2016, dated 2020).

Read-outs that look alike come from different tables or passages of the source.

Set-up in all cases: species or system Hepatitis C virus (HCV)
One assay has as its system HCV replicon 1A. In words: Cell-based HCV replicon assay (Replicon Assay A), replicon 1A. As to conditions: replicon RNA by real time PCR, cells harvested on day 3. On the procedure: (§1) To measure cell-based anti-HCV activity of compounds of the present invention, two complimentary assays were employed using various replicons. In the first assay (“Replicon Assay A”), replicon cells were seeded at 2000 cells/well in 384-well 384-well flat bottom tissue culture treated clear bottom plate (Corning 3707) in the presence of the test compound. Various concentrations of test compound, typically in 10 serial dilutions, were added to the assay mixture, with the starting concentration ranging from 333.3 nM to […]. The final concentration of DMSO was 0.5%. Fetal bovine serum was 5%, in the assay media. Cells were harvested on day 3 by removing media and washing the cells with a suitable wash buffer. The cells are lysed with the addition of 1× Qiagen lysis buffer (Cat #1062731). The replicon RNA level was measured using real time PCR (TaqMan® EZ RT-PCR, Applied Biosystems 403028) with the following primers and probes: […]
(§2) Cyclophilin RNA was used as endogenous control and was amplified in the same reaction as NS5B (multiplex PCR). The real-time RT-PCR reactions were run on ABI PRISM 7900HT Sequence Detection System using the following program: 50° C. for 2 minutes, 60° C. for 30 minutes, 95° C. for 5 minutes, 40 cycles of 94° C. for 20 sec, 55° C. for 1 minutes.
(§3) The amount of HCV replicon RNA per cell is quantified using a linear regression curve for a known nanogram (ng) amount of HCV replicon total RNA. This is established by plotting the Cycle Threshold values (Ct) from the Neo probe and primer set versus the log (ng) for each HCV replicon total RNA standard. The amount of HCV RNA for each replicon sample is calculated by taking the sample's Ct value, minus the line intercept, divided by the slope of the line. Similarly, the amount of Cyclophilin mRNA per cell is also quantified using a linear regression curve for a known nanogram (ng) amount of HCV replicon total RNA. Again, this is established by plotting the Cycle Threshold values (Ct) from the Cyclophilin probe and primer set versus the log (ng) for each HCV replicon total RNA standard.
(§4) Data was obtained for various compounds of the present invention using the methods described in the Example above, and is presented in the table immediately below. Data for replicons 1A, 1AY93H and 2B were obtained using Replicon Assay A and data for replicons 1B were obtained using Replicon Assay B.

The next assay concerns HCV replicon 1A Y93H. In words: Cell-based HCV replicon assay (Replicon Assay A), replicon 1AY93H. The following applies: read-out: Replicon EC50 (nM) 1A Y93H, replicon 1A Y93H, replicon RNA by real time PCR, cells harvested on day 3. On the procedure: as §1, §2, §3, §4
The subject of the next assay is HCV replicon 1B. Briefly: Cell-based HCV replicon assay (Replicon Assay B), replicon 1B. As to conditions: Hepatitis C virus, 72 h, replicon RNA by real-time PCR, incubated for 3 days. How it is done: In an alternate assay (“Replicon Assay B”), 1000 cells were seeded per well in a 384-well collagen coated black plate from Greiner bio-one (Cat #781946) in 5% FBS. Inhibitors of this invention were added at 24 h post-seeding, and the plates were incubated for 3 days. Cells were subsequently lysed with Qiagen lysis buffer (Cat #1062731) to extract the RNA. HCV replicon RNA level was measured by real-time PCR using the RNA-to-CT kit from Applied Biosystem (Cat #4392656) and genotype-specific primers and probes. The amplicon was located within NSSB. The sequence of the PCR primers are as follows: 5B.2F, ATGGACAGGCGCCCTGA (SEQ. ID NO. 1); 5B.2R, […] (SEQ. ID NO. 2); the probe sequence was FAM-labeled CACGCCATGCGCTGCGG (SEQ. ID NO. 3). To detect genotype 1A the primer 1A F, TGCGGAACCGGTGAGTACA and 1A R, […] were used; the probe sequence was FAM-[…].
The real-time RT-PCR reactions were run on ABI PRISM 7900HT or Viia7 Sequence Detection System using the following program: 48° C. for 30 minutes, 95° C. for 10 minutes, 40 cycles of 95° C. for 15 sec, 60° C. for 1 minutes. The 50% effective concentration (EC50) was the drug concentration necessary to achieve an increase in the cycle threshold (CT) of 1 over the projected baseline CT.
as §4

Another assay has as its system HCV replicon 2B. Briefly: Cell-based HCV replicon assay (Replicon Assay A), replicon 2B. As to conditions: read-out: Replicon EC50 (nM) 2B, replicon 2B, replicon RNA by real time PCR, cells harvested on day 3. How it is done: as §1, §2, §3, §4

Take `COC(=O)N[C@H](C(=O)N1CCC[C@H]1c1ncc(-c2cc(F)c3c(c2)OC(c2cc(C(C)C)no2)n2c-3cc3cc(-c4cnc([C@@H]5CCCN5C(=O)[C@@H](NC(=O)OC)C(C)C)[nH]4)ccc32)[nH]1)C(C)C` (mixture of isomers) [Compound 6]: the EC50 turned out to be 0.0017 nM in the assay on HCV replicon 1A (Hepatitis C virus, 72 h); 0.088 nM with HCV replicon 1A Y93H (Hepatitis C virus, 72 h); 0.0018 nM in the assay with HCV replicon 1B; 0.36 nM with HCV replicon 2B (Hepatitis C virus, 72 h).

On to `COC(=O)N[C@H](C(=O)N1CCC[C@H]1c1ncc(-c2cc(F)c3c(c2)OC(c2csnn2)n2c-3cc3cc(-c4cnc([C@@H]5CCCN5C(=O)[C@@H](NC(=O)OC)C(C)C)[nH]4)ccc32)[nH]1)C(C)C` (mixture of isomers) [Compound 37], for which the EC50 came out at 0.004 nM in the assay with HCV replicon 1A (Hepatitis C virus, 72 h); 0.857 nM in the assay with HCV replicon 1A Y93H (Hepatitis C virus, 72 h); 0.0036 nM in the assay with HCV replicon 1B; 1.32 nM in the assay on HCV replicon 2B (Hepatitis C virus, 72 h).

`COC(=O)N[C@H](C(=O)N1CCC[C@H]1c1ncc(-c2cc(F)c3c(c2)OC(c2nc4ccccc4o2)n2c-3cc3cc(-c4cnc([C@@H]5CCCN5C(=O)[C@@H](NC(=O)OC)C(C)C)[nH]4)ccc32)[nH]1)C(C)C` (single isomer, unassigned) [Compound 20]: the EC50 with HCV replicon 1A came to 0.0023 nM; in the assay on HCV replicon 1A Y93H it was 0.075 nM; in the assay with HCV replicon 1B, 0.0026 nM; with HCV replicon 2B it was 0.32 nM.

As to `COC(=O)N[C@H](C(=O)N1CCC[C@H]1c1ncc(-c2cc(F)c3c(c2)OC(c2cnns2)n2c-3cc3cc(-c4cnc([C@@H]5CCCN5C(=O)[C@@H](NC(=O)OC)C(C)C)[nH]4)ccc32)[nH]1)C(C)C` (single isomer, unassigned) [Compound 22], the EC50 came to 0.0015 nM in the assay with HCV replicon 1A (Hepatitis C virus, 72 h); 0.048 nM in the assay on HCV replicon 1A Y93H; 0.0024 nM in the assay with HCV replicon 1B; 0.14 nM in the assay with HCV replicon 2B.

Turning to `COC(=O)N[C@H](C(=O)N1CCC[C@H]1c1ncc(-c2cc(F)c3c(c2)OC(c2nc(C)co2)n2c-3cc3cc(-c4cnc([C@@H]5CCCN5C(=O)[C@@H](NC(=O)OC)C(C)C)[nH]4)ccc32)[nH]1)C(C)C` (single isomer, unassigned) [Compound 24], the concentration giving a half-maximal response (EC50) is 0.0021 nM in the assay on HCV replicon 1A, 0.266 nM in the assay on HCV replicon 1A Y93H and 2.62 nM in the assay with HCV replicon 2B.

With `COC(=O)N[C@H](C(=O)N1CCC[C@H]1c1ncc(-c2cc(F)c3c(c2)OC(c2cc(C(C)C)no2)n2c-3cc3cc(-c4cnc([C@@H]5CCCN5C(=O)[C@@H](NC(=O)OC)C(C)C)[nH]4)ccc32)[nH]1)C(C)C` (single isomer, unassigned) [Compound 25], the EC50 in the assay on HCV replicon 1A (Hepatitis C virus, 72 h) is 0.0012 nM; in the assay with HCV replicon 1A Y93H it was 0.026 nM; with HCV replicon 1B it was 0.0011 nM; in the assay on HCV replicon 2B, 0.3 nM.

Take `CCc1cnc(C2Oc3cc(-c4cnc([C@@H]5CCCN5C(=O)[C@@H](NC(=O)OC)C(C)C)[nH]4)cc(F)c3-c3cc4cc(-c5cnc([C@@H]6CCCN6C(=O)[C@@H](NC(=O)OC)C(C)C)[nH]5)ccc4n32)o1` (single isomer, unassigned) [Compound 28]: the EC50 in the assay on HCV replicon 1A was found to be 0.0021 nM; in the assay on HCV replicon 1A Y93H (Hepatitis C virus, 72 h) it was 0.31 nM; in the assay with HCV replicon 2B, 2.09 nM.

On to `COC(=O)N[C@H](C(=O)N1CCC[C@H]1c1ncc(-c2cc(F)c3c(c2)OC(c2nc(C(C)C)ns2)n2c-3cc3cc(-c4cnc([C@@H]5CCCN5C(=O)[C@@H](NC(=O)OC)C(C)C)[nH]4)ccc32)[nH]1)C(C)C` (single isomer, unassigned) [Compound 31], for which the EC50 in the assay with HCV replicon 1A (Hepatitis C virus, 72 h) came to 0.0013 nM; in the assay on HCV replicon 1A Y93H it was 5.65 nM; in the assay on HCV replicon 2B (Hepatitis C virus, 72 h) it was 1.64 nM.

For `COC(=O)N[C@H](C(=O)N1CCC[C@H]1c1ncc(-c2cc(F)c3c(c2)OC(c2nc(C(C)C)ns2)n2c-3cc3cc(-c4cnc([C@@H]5CCCN5C(=O)[C@@H](NC(=O)OC)C(C)C)[nH]4)ccc32)[nH]1)C(C)C` (single isomer, unassigned) [Compound 32], the EC50 turned out to be 0.0022 nM in the assay with HCV replicon 1A, 0.185 nM in the assay on HCV replicon 1A Y93H and 0.9 nM in the assay on HCV replicon 2B.

`CCc1nnc(C2Oc3cc(-c4cnc([C@@H]5CCCN5C(=O)[C@@H](NC(=O)OC)C(C)C)[nH]4)cc(F)c3-c3cc4cc(-c5cnc([C@@H]6CCCN6C(=O)C(NC(=O)OC)C(C)C)[nH]5)ccc4n32)s1` (single isomer, unassigned) [Compound 33]: the EC50 with HCV replicon 1A was 0.0028 nM; in the assay on HCV replicon 1B it was 0.0026 nM.

For `COC(=O)N[C@H](C(=O)N1CCC[C@H]1c1ncc(-c2cc(F)c3c(c2)OC(c2coc(C4CC4)n2)n2c-3cc3cc(-c4cnc([C@@H]5CCCN5C(=O)[C@@H](NC(=O)OC)C(C)C)[nH]4)ccc32)[nH]1)C(C)C` (single isomer, unassigned) [Compound 35], the EC50 came out at 0.0034 nM in the assay on HCV replicon 1A (Hepatitis C virus, 72 h) and 0.003 nM in the assay on HCV replicon 1B.

In the case of `COC(=O)N[C@H](C(=O)N1CCC[C@H]1c1ncc(-c2cc(F)c3c(c2)OC(c2cc4ccccn4n2)n2c-3cc3cc(-c4cnc([C@@H]5CCCN5C(=O)[C@@H](NC(=O)OC)C(C)C)[nH]4)ccc32)[nH]1)C(C)C` (single isomer, unassigned) [Compound 39], the results for the EC50 in the assay on HCV replicon 1A, in the assay with HCV replicon 1A Y93H and in the assay on HCV replicon 2B were 0.0068 nM, 1.66 nM and 0.33 nM, respectively.

`COC(=O)N[C@H](C(=O)N1CCC[C@H]1c1ncc(-c2cc(F)c3c(c2)OC(c2cc4ccccn4n2)n2c-3cc3cc(-c4cnc([C@@H]5CCCN5C(=O)[C@@H](NC(=O)OC)C(C)C)[nH]4)ccc32)[nH]1)C(C)C` (single isomer, unassigned) [Compound 40]: the EC50 in the assay with HCV replicon 1A is 0.0084 nM; with HCV replicon 1A Y93H, 0.536 nM; with HCV replicon 2B it was 1.54 nM.

On to `COC(=O)N[C@H](C(=O)N1CCC[C@H]1c1ncc(-c2cc(F)c3c(c2)OC(c2cc4ccccn4n2)n2c-3cc3cc(-c4cnc([C@@H]5CCCN5C(=O)[C@@H](NC(=O)OC)C(C)C)[nH]4)ccc32)[nH]1)C(C)C` (single isomer, unassigned) [Compound 41], for which the results for the EC50 in the assay on HCV replicon 1A, in the assay with HCV replicon 1A Y93H and in the assay with HCV replicon 2B were 0.0019 nM, 0.317 nM and 0.57 nM, respectively.

Consider `COC(=O)N[C@H](C(=O)N1CCC[C@H]1c1ncc(-c2cc(F)c3c(c2)OC(c2cn4ccccc4n2)n2c-3cc3cc(-c4cnc([C@@H]5CCCN5C(=O)[C@@H](NC(=O)OC)C(C)C)[nH]4)ccc32)[nH]1)C(C)C` (some centres unmarked) [Compound 14], for which the half-maximal effective concentration (EC50) in the assay with HCV replicon 1A (Hepatitis C virus, 72 h) stood at 0.0057 nM; in the assay with HCV replicon 1B, 0.0078 nM.

In the case of `COC(=O)N[C@H](C(=O)N1CCC[C@H]1c1ncc(-c2ccc3c(c2)OC(c2ccc(C)o2)n2c-3cc3cc(-c4cnc([C@@H]5CCCN5C(=O)[C@@H](NC(=O)OC)C(C)C)[nH]4)ccc32)[nH]1)C(C)C` (some centres unmarked) [Compound 42], the EC50 stood at 0.0309 nM with HCV replicon 1A (Hepatitis C virus, 72 h); 5.01 nM with HCV replicon 1A Y93H (Hepatitis C virus, 72 h); 6.16 nM in the assay on HCV replicon 2B (Hepatitis C virus, 72 h).

With `COC(=O)N[C@H](C(=O)N1CCC[C@H]1c1ncc(-c2ccc3c(c2)OC(c2ccc(C)o2)n2c-3cc3cc(-c4cnc([C@@H]5C[C@@H](F)CN5C(=O)[C@@H](NC(=O)OC)C(C)C)[nH]4)ccc32)[nH]1)C(C)C` (some centres unmarked) [Compound 43], the EC50 with HCV replicon 1A (Hepatitis C virus, 72 h) turned out to be 0.0281 nM; with HCV replicon 1A Y93H (Hepatitis C virus, 72 h) it was 1.02 nM; in the assay on HCV replicon 2B (Hepatitis C virus, 72 h) it was 0.06 nM.
